Tests used:
ADAM-10 = biological target: T1, ADAM-10 (UniProt O14672); test: ADAM-10 enzyme assay, cleavage of a fluorogenic 10-residue peptide; assay type: biochemical, mouse or human (mADAM-10 or hADAM-10); details: in vitro;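 also: mouse or human ADAM-10 at 5 nM active enzyme, pH 8.0 HEPES buffer with CaCl2 and NP-40, compounds titrated 100 µM down to 0.5 nM, fluorescence read after 16 h at room temperature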
T1 sequence (O14672 1-748): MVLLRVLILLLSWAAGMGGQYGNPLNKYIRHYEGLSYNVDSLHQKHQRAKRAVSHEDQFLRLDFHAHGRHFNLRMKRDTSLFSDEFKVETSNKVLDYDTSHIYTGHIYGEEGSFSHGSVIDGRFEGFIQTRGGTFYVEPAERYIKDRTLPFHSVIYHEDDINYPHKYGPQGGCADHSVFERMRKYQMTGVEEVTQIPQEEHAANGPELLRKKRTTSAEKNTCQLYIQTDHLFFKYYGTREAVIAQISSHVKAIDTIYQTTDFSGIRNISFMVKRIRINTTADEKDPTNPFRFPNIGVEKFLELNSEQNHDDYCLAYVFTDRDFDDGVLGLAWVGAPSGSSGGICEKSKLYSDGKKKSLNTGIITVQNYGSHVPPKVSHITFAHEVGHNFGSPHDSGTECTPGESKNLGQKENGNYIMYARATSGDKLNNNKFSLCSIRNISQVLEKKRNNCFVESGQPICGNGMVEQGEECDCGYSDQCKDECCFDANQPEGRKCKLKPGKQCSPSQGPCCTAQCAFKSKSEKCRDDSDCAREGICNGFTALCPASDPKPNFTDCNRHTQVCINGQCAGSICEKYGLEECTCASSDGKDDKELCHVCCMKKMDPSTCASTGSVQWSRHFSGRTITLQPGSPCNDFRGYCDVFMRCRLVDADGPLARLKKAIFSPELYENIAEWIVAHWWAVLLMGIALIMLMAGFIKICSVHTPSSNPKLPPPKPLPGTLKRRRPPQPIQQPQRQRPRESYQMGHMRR

[1] = biological target: T2, MMP-1 (Fibroblast collagenase) (Homo sapiens, UniProt P03956); test: In vitro metalloprotease inhibition, MMP-1; assay type: biochemical
T2 sequence (P03956 100-469): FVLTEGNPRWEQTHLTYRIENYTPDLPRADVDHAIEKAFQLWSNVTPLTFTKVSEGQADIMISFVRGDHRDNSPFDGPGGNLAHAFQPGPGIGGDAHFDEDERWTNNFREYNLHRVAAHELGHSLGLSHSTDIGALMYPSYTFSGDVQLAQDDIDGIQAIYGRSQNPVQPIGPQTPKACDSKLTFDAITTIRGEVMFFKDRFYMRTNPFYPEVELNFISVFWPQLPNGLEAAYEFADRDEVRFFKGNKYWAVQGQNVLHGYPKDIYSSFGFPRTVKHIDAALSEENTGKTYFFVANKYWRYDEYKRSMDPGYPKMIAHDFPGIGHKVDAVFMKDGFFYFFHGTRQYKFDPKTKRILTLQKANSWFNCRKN
Description: (§1) Blank cells indicate lack of data only.

MMP-13 (collagenase-3) = MMP-13 (collagenase-3) (Homo sapiens, UniProt P45452); test: In vitro metalloprotease inhibition, MMP-13; assay type: biochemical
MMP-3 (Stromelysin-1) = MMP-3 (Stromelysin-1) (Homo sapiens, UniProt P08254); test: In vitro metalloprotease inhibition, MMP-3; assay type: biochemical
MMP-3 (Stromelysin-1), sequence (P08254 100-477, species assumed): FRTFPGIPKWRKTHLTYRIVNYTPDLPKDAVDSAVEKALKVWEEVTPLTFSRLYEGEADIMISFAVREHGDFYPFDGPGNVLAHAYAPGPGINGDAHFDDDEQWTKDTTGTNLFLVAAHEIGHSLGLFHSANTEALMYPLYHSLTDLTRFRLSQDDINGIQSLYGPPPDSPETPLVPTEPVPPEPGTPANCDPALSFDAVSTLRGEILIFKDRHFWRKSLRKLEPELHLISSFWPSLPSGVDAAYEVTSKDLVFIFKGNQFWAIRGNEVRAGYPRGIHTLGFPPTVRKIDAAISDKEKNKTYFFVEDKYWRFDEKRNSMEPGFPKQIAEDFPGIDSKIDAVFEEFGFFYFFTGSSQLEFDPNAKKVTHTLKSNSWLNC
Description: as §1

[2] = biological target: T3, MMP-2 (72 kDa gelatinase, gelatinase A) (Homo sapiens, UniProt P08253); test: In vitro metalloprotease inhibition, MMP-2; assay type: biochemical
T3 sequence (P08253 110-660): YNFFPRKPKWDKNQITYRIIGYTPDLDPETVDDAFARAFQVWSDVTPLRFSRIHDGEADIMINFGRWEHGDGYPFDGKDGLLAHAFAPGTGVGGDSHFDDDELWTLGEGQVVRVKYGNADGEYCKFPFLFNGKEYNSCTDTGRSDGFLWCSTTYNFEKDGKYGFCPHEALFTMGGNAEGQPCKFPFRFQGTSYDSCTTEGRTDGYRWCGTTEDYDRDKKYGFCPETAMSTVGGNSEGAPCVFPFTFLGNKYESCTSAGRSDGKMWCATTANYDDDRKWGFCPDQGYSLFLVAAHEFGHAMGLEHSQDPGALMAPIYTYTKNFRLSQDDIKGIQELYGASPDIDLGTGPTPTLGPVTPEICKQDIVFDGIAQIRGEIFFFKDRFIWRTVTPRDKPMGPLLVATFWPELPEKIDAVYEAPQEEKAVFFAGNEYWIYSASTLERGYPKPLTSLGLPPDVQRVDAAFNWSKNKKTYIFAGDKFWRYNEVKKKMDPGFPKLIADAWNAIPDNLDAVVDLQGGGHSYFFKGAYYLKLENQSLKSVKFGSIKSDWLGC

[3] = biological target: TACE (TNF-alpha converting enzyme, ADAM-17) (Homo sapiens, UniProt P78536); test: In vitro metalloprotease inhibition, TACE; assay type: biochemical
TACE (TNF-alpha converting enzyme, ADAM-17), sequence (P78536 215-824): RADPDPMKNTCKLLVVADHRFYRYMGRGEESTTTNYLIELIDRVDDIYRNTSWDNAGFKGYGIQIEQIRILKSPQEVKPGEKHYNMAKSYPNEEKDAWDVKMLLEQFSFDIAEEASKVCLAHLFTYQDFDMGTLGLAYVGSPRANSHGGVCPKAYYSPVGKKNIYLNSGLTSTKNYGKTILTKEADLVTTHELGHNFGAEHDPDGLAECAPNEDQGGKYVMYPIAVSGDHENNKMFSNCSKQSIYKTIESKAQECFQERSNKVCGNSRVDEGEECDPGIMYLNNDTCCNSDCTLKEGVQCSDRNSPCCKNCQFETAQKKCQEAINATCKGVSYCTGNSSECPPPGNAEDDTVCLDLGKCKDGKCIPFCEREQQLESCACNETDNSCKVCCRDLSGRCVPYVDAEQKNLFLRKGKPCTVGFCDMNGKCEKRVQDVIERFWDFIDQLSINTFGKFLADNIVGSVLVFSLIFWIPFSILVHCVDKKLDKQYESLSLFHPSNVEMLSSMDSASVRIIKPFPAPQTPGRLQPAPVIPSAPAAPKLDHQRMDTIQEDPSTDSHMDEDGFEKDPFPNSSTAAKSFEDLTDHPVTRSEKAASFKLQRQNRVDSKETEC
Description: as §1

IC50 (ADAM-10) [nM]	IC50 [1] [µM]	IC50 (MMP-13 (collagenase-3)) [nM]	IC50 (MMP-3 (Stromelysin-1)) [nM]	IC50 [2] [nM]	IC50 [3] [nM]	Structure (SMILES)
< 50	1 to 20	< 50	50 to 1000	< 50	–	CCOC(=O)N1CCN(CCS(=O)(=O)N2CCN(S(=O)(=O)c3cc(F)c(Oc4ccc(Cl)cc4)c(F)c3)[C@@H](C(=O)NO)C2)CC1 [Entry 56]
< 50	0.05 to 1	< 50	50 to 1000	< 50	–	O=C(NO)[C@H]1CN(S(=O)(=O)CCN2CCCCC2)CCN1S(=O)(=O)c1cc(F)c(Oc2ccc(Cl)cc2)c(F)c1 [Entry 53]
< 50	0.05 to 1	< 50	< 50	< 50	–	O=C(NO)[C@H]1CN(C(=O)N2CCOCC2)CCN1S(=O)(=O)c1ccc(Oc2ccc(F)cc2)c(F)c1 [Entry 8]
< 50	< 0.05	< 50	< 50	< 50	–	O=C(NO)[C@H]1CN(C(=O)N2CCOCC2)CCN1S(=O)(=O)c1ccc(Oc2ccc(F)cc2)cc1 [Entry 2]
< 50	0.05 to 1	< 50	50 to 1000	< 50	–	O=C(NO)[C@H]1CN(C(=O)N2CCOCC2)CCN1S(=O)(=O)c1ccc(-c2cccc(F)c2)nc1 [Entry 58]
< 50	1 to 20	< 50	50 to 1000	< 50	–	CN(C)S(=O)(=O)N1CCN(S(=O)(=O)c2cc(F)c(Oc3ccc(Cl)cc3)c(F)c2)[C@@H](C(=O)NO)C1 [Entry 36]
50 to 1000	1 to 20	50 to 1000	1000 to 20000	50 to 1000	–	O=C(NO)[C@H]1CN(C(=O)c2ccc(-c3ccccc3)cc2)CCN1S(=O)(=O)c1cc(F)c(Oc2ccc(Cl)cc2)c(F)c1 [Entry 51]
50 to 1000	> 20	50 to 1000	1000 to 20000	50 to 1000	–	O=C(O)CN1CCN(S(=O)(=O)c2cc(F)c(Oc3ccc(Cl)cc3)c(F)c2)[C@@H](C(=O)NO)C1 [Entry 63]
50 to 1000	> 20	< 50	1000 to 20000	< 50	–	CN(C)c1cccc2c(S(=O)(=O)N3CCN(S(=O)(=O)c4cc(F)c(Oc5ccc(Cl)cc5)c(F)c4)[C@@H](C(=O)NO)C3)cccc12 [Entry 60]
< 50	1 to 20	< 50	50 to 1000	< 50	–	COCCN1CCN(S(=O)(=O)c2cc(F)c(Oc3ccc(Cl)cc3)c(F)c2)[C@@H](C(=O)NO)C1 [Entry 29]
< 50	1 to 20	< 50	50 to 1000	< 50	–	O=C(NO)[C@H]1CN(C(=O)C(=O)N2CCCCC2)CCN1S(=O)(=O)c1cc(F)c(Oc2ccc(Cl)cc2)c(F)c1 [Entry 35]
< 50	> 20	< 50	1000 to 20000	< 50	–	CN1CCN(CC(=O)N2CCN(S(=O)(=O)c3cc(F)c(Oc4ccc(Cl)cc4)c(F)c3)[C@@H](C(=O)NO)C2)CC1 [Entry 24]
50 to 1000	> 20	< 50	1000 to 20000	< 50	–	C=CCN1CCN(S(=O)(=O)c2cc(F)c(Oc3ccc(Cl)cc3)c(F)c2)[C@@H](C(=O)NO)C1 [Entry 62]
–	1 to 20	–	50 to 1000	–	50 to 1000	COCCOC(=O)N1CCN(S(=O)(=O)c2cc(F)c(Oc3ccc(Cl)cc3)c(F)c2)[C@@H](C(=O)NO)C1 [Entry 15]
< 50	> 20	50 to 1000	1000 to 20000	< 50	–	CCCC(CCC)C(=O)N1CCN(S(=O)(=O)c2cc(F)c(Oc3ccc(Cl)cc3)c(F)c2)[C@@H](C(=O)NO)C1 [Entry 44]
< 50	1 to 20	< 50	1000 to 20000	< 50	–	O=C(NO)[C@H]1CN(C(=O)c2ccncc2)CCN1S(=O)(=O)c1cc(F)c(Oc2ccc(Cl)cc2)c(F)c1 [Entry 42]
< 50	1 to 20	< 50	50 to 1000	< 50	–	COCCOC(=O)N1CCN(S(=O)(=O)c2cc(F)c(Oc3ccccc3)c(F)c2)[C@@H](C(=O)NO)C1 [Entry 40]
< 50	> 20	< 50	1000 to 20000	< 50	–	CN1CCN(C(=O)N2CCN(S(=O)(=O)c3cc(F)c(Oc4ccc(Cl)cc4)c(F)c3)[C@@H](C(=O)NO)C2)CC1 [Entry 16]
< 50	> 20	< 50	1000 to 20000	< 50	–	O=C(NO)[C@H]1CN(C(=O)CN2CCCCC2)CCN1S(=O)(=O)c1cc(F)c(Oc2ccc(Cl)cc2)c(F)c1 [Entry 26]
50 to 1000	> 20	> 20000	1000 to 20000	50 to 1000	–	O=C(NO)[C@H]1CNCCN1S(=O)(=O)c1cc(F)c(Oc2ccc(F)cc2)c(F)c1 [Entry 11]
< 50	1 to 20	< 50	50 to 1000	< 50	–	O=C(CN1CCOCC1)NC(=O)N1CCN(S(=O)(=O)c2cc(F)c(Oc3ccc(Cl)cc3)c(F)c2)[C@@H](C(=O)NO)C1 [Entry 46]
< 50	> 20	< 50	50 to 1000	< 50	–	CCCCCCC(=O)N1CCN(S(=O)(=O)c2cc(F)c(Oc3ccc(Cl)cc3)c(F)c2)[C@@H](C(=O)NO)C1 [Entry 43]
< 50	0.05 to 1	< 50	< 50	< 50	–	COCCOC(=O)N1CCN(S(=O)(=O)c2ccc(Oc3ccc(Cl)cc3)c(F)c2)[C@@H](C(=O)NO)C1 [Entry 4]

Source: patent publication US7629341B2, “Human ADAM-10 inhibitors” (Symphony Evolution, Inc., priority 2003, dated 2009)
